This is an account of results in patent US7709636B2, “Pyrazole sulfonylurea compound and herbicide” (Nissan Chemical Industries, Ltd., priority 2004, dated 2010).

Series [1] relates to rice transplanted at a depth of 0 cm. Put plainly: Herbicidal effect test in submerged condition by treatment before weed-generation (2). Format: in vivo, Oryza sativa. To be noted: 0.3 g/a; submerged paddy soil pot, seedlings fixed to paddy surface with roots exposed; 3 weeks after treatment. As for the experimental part:
(§1) Herbicidal Effect Test in Submerged Condition by Treatment Before Weed-Generation (2)
(§2) Paddy surface soil was placed in a plastic pot of 1/10000 are, water was poured therein and mixed. After seeds of Scirpus juncoides were sown, paddy surface soil was added by 2 cm, and submerged with water, and then seeds of Echinochloa crus-galli, Scirpus juncoides, Monochoria vaginalis, Rotala indica and Lindernia pyxidaria were sown together. In addition, rice seedlings at 2.5th leaf stage were transplanted, and fixed to the paddy surface in a state where the roots were exposed on the other side. On the day when the seeds were sown, the wettable powder of the present invention prepared according to Formulation Example 1 was diluted with water so as to give a predetermined formulation amount, and the surface of the water was treated with the diluted wettable powder. The plants were grown by putting the pot in a green house at 25 to 30° C. The herbicidal effect for each plant was investigated 3 weeks after treatment with the herbicide according to the criteria indicated in Test Example 1.

A further series relates to direct sown rice. Put plainly: Herbicidal effect test by foliage treatment. Type of series: in vivo, Oryza sativa. The settings on record: 1.6 g/a; foliage treatment after growth of 14 days; 3 weeks after treatment. In outline:
(§3)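 Plants grow from seed under about 1.5 cm of sterilized diluvial soil for 14 days at 25 to 30° C in a greenhouse. A small sprayer applies diluted wettable powder evenly to the foliage, and each species is scored three weeks later.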

Another series deals with Polygonum blumei. Put plainly: Herbicidal effect test by foliage treatment. Format: in vivo. To be noted: 1.6 g/a; foliage treatment after growth of 14 days; 3 weeks after treatment. In outline:
as §3

A further series relates to soybean (Glycine max). As to the kind of experiment: Herbicidal effect test by foliage treatment. To be noted: 1.6 g/a; foliage treatment after growth of 14 days; 3 weeks after treatment. Format: in vivo. In outline:
as §3

The subject of another series is Amaranthus retroflexus. As to the kind of experiment: Herbicidal effect test by foliage treatment. Type of series: in vivo. The settings on record: 1.6 g/a; foliage treatment after growth of 14 days; 3 weeks after treatment. In outline:
as §3

The subject of a further series is Setaria viridis. Put plainly: Herbicidal effect test by foliage treatment. Type of series: in vivo. To be noted: 1.6 g/a; foliage treatment after growth of 14 days; 3 weeks after treatment. In outline: as §3
For a further series, the system named is corn (Zea mays). As to the kind of experiment: Herbicidal effect test by foliage treatment. Type of series: in vivo. To be noted: 1.6 g/a; foliage treatment after growth of 14 days; 3 weeks after treatment. In outline:
as §3

Another series has as its system Avena fatua. Put plainly: Herbicidal effect test by foliage treatment. Type of series: in vivo. To be noted: 1.6 g/a; foliage treatment after growth of 14 days; 3 weeks after treatment. In outline:
as §3

The next series concerns Stellaria media. Put plainly: Herbicidal effect test by foliage treatment. Type of series: in vivo. The settings on record: 1.6 g/a; foliage treatment after growth of 14 days; 3 weeks after treatment. In outline: as §3
The subject of the next series is Beta vulgaris (beet). Put plainly: Herbicidal effect test by foliage treatment. Format: in vivo. The settings on record: 1.6 g/a; foliage treatment after growth of 14 days; 3 weeks after treatment. In outline:
as §3

Series [2] concerns Echinochloa crus-galli. As to the kind of experiment: Herbicidal effect test by foliage treatment. Format: in vivo. The settings on record: 1.6 g/a; foliage treatment after growth of 14 days; 3 weeks after treatment. In outline:
as §3

The subject of the next series is Chenopodium album. As to the kind of experiment: Herbicidal effect test by foliage treatment. Type of series: in vivo. To be noted: 1.6 g/a; foliage treatment after growth of 14 days; 3 weeks after treatment. In outline: as §3
A further series deals with Black-grass. As to the kind of experiment: Herbicidal effect test by foliage treatment. Type of series: in vivo. The settings on record: 1.6 g/a; foliage treatment after growth of 14 days; 3 weeks after treatment. In outline: as §3
The subject of the next series is Digitaria adscendes. Put plainly: Herbicidal effect test by foliage treatment. To be noted: 1.6 g/a; foliage treatment after growth of 14 days; 3 weeks after treatment. Type of series: in vivo. In outline:
as §3

The test system of series [3] is Triticum aestivum (wheat). Put plainly: Herbicidal effect test by foliage treatment. The settings on record: 1.6 g/a; foliage treatment after growth of 14 days; 3 weeks after treatment. Format: in vivo. In outline: as §3
The subject of the next series is Abutilon avicennae. As to the kind of experiment: Herbicidal effect test by foliage treatment. Type of series: in vivo. To be noted: 1.6 g/a; foliage treatment after growth of 14 days; 3 weeks after treatment. In outline:
as §3

The next series concerns Ambrosia elatior. As to the kind of experiment: Herbicidal effect test by foliage treatment. Type of series: in vivo. To be noted: 1.6 g/a; foliage treatment after growth of 14 days; 3 weeks after treatment. In outline:
as §3

Series [4] has as its system transplanted rice (Oryza sativa). Put plainly: Herbicidal effect test in submerged condition by treatment before weed-generation (2). Format: in vivo. The settings on record: 0.3 g/a; submerged paddy soil pot, rice seedlings at 2.5th leaf stage transplanted; 3 weeks after treatment. Here is the method:
as §1, §2

A further series concerns Rotala indica. The description is as above. Format: in vivo. The settings on record: 0.3 g/a; submerged paddy soil pot, water surface treated on day of sowing; 3 weeks after treatment. As for the experimental part:
as §1, §2

In the next series the test system is Monochoria vaginalis. The series is described as above. Type of series: in vivo. To be noted: 0.3 g/a; submerged paddy soil pot, water surface treated on day of sowing; 3 weeks after treatment. As for the experimental part:
as §1, §2

The test system of series [5] is Echinochloa crus-galli. The series is described as above. Format: in vivo. The settings on record: 0.3 g/a; submerged paddy soil pot, water surface treated on day of sowing; 3 weeks after treatment. As for the experimental part:
as §1, §2

The next series relates to Scirpus juncoides. The series is described as above. Type of series: in vivo. The settings on record: 0.3 g/a; submerged paddy soil pot, water surface treated on day of sowing; 3 weeks after treatment. As for the experimental part: as §1, §2
Another series concerns Lindernia pyxidaria. The series is described as above. Format: in vivo. To be noted: 0.3 g/a; submerged paddy soil pot, water surface treated on day of sowing; 3 weeks after treatment. As for the experimental part: as §1, §2

Take `COc1cc(OC)nc(NC(=O)NS(=O)(=O)c2c(C3=NOCC(C)O3)c(Cl)nn2C)n1` (centres unmarked) [Compound 1, N-((4,6-dimethoxypyrimidin-2-yl)aminocarbonyl)-3-chloro-1-methyl-4-(5-methyl-5H,6H-1,4,2-dioxadin-3-yl)pyrazole-5-sulfonamide]: the “herbicidal effect, g: rice transplanted at a depth of 0 cm” value in series [1] is 0 (Herbicidal rate 5% or less (little effect)). For the same compound, the “herbicidal effect, d: direct sown rice” value in the series on direct sown rice is 0 (Herbicidal rate 5% or less (little effect)). In the series on Polygonum blumei, the “herbicidal effect, L: Polygonum blumei” value is reported as 5 (Herbicidal rate 90% or more (almost complete death)). Further, the “herbicidal effect, c: soybean (Glycine max)” value in the series on soybean (Glycine max) is 5 (Herbicidal rate 90% or more (almost complete death)). Besides, the “herbicidal effect, J: Amaranthus retroflexus” value with Amaranthus retroflexus is listed as 5 (Herbicidal rate 90% or more (almost complete death)). Besides, the “herbicidal effect, E: Setaria viridis” value in the series on Setaria viridis is 3 (Herbicidal rate 40% or more and less than 70%). In addition, the “herbicidal effect, b: corn (Zea mays)” value in the series with corn (Zea mays) is 5 (Herbicidal rate 90% or more (almost complete death)). In addition, in the series with Avena fatua, the “herbicidal effect, F: Avena fatua” value is 1 (Herbicidal rate 5% or more and less than 20%). Besides, in the series on Stellaria media, the “herbicidal effect, M: Stellaria media” value is 5 (Herbicidal rate 90% or more (almost complete death)). The “herbicidal effect, f: Beta vulgaris (beet)” value in the series with Beta vulgaris (beet) was 5 (Herbicidal rate 90% or more (almost complete death)). Further, the “herbicidal effect, A: Echinochloa crus-galli” value in the series with Echinochloa crus-galli [2] and with Echinochloa crus-galli [5] was 5 (Herbicidal rate 90% or more (almost complete death)) each time. The “herbicidal effect, K: Chenopodium album” value in the series on Chenopodium album was 4 (Herbicidal rate 70% or more and less than 90%). Further, the “herbicidal effect, G: Black-grass” value in the series on Black-grass is 4 (Herbicidal rate 70% or more and less than 90%). The “herbicidal effect, D: Digitaria adscendes” value in the series on Digitaria adscendes was 5 (Herbicidal rate 90% or more (almost complete death)). Also, the “herbicidal effect, e: Triticum aestivum (wheat)” value in [3] was 2 (Herbicidal rate 20% or more and less than 40%). Besides, in the series with Abutilon avicennae, the “herbicidal effect, H: Abutilon avicennae” value is listed as 5 (Herbicidal rate 90% or more (almost complete death)). Besides, the “herbicidal effect, I: Ambrosia elatior” value in the series with Ambrosia elatior is 5 (Herbicidal rate 90% or more (almost complete death)). For the same compound, the “herbicidal effect, a: transplanted rice (Oryza sativa)” value in series [4] is given as 0 (Herbicidal rate 5% or less (little effect)). Further, the “herbicidal effect, N: Rotala indica” value with Rotala indica was 5 (Herbicidal rate 90% or more (almost complete death)). The “herbicidal effect, C: Monochoria vaginalis” value with Monochoria vaginalis is recorded as 5 (Herbicidal rate 90% or more (almost complete death)). Moreover, in the series on Scirpus juncoides, the “herbicidal effect, B: Scirpus juncoides” value is 5 (Herbicidal rate 90% or more (almost complete death)). In addition, the “herbicidal effect, O: Lindernia pyxidaria” value in the series with Lindernia pyxidaria is 5 (Herbicidal rate 90% or more (almost complete death)).
